The values below come from patent US7202261B2, “Calcilytic compounds” (NPS Pharmaceuticals, Inc., priority 1996, dated 2007).

The target of one assay is T1, human calcium receptor (Homo sapiens, UniProt P41180).
T1 construct: expressed in transfected cells
T1 sequence (P41180 20-1078): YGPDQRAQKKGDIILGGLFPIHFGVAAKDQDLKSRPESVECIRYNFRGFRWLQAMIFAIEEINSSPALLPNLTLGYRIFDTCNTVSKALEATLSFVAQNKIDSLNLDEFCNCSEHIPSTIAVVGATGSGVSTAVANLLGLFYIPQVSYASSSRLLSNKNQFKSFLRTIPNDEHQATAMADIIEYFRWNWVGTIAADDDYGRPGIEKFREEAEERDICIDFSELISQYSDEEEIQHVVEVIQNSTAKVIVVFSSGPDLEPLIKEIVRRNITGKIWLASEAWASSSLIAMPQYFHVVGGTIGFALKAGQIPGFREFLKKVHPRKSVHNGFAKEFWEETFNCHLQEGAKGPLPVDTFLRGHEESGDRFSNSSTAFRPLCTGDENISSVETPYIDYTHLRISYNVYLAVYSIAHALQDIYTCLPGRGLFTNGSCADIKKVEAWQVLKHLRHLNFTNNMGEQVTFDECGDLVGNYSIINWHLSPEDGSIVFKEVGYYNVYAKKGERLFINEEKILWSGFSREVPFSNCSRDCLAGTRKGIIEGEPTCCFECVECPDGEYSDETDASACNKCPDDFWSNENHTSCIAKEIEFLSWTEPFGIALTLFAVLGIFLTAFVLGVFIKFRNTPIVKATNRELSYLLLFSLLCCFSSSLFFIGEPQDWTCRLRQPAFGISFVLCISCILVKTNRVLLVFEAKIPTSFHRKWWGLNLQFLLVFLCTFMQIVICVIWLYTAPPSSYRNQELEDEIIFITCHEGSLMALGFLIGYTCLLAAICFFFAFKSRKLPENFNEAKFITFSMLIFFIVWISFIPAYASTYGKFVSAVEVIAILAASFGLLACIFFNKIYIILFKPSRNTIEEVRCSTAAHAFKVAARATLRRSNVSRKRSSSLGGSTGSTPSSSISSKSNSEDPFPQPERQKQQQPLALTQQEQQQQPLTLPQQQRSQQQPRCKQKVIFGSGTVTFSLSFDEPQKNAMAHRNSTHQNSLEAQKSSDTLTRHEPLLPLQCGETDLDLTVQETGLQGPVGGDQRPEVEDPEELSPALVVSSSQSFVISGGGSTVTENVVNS
Nature of the assay: Calcium Receptor Inhibitor Assay. The assay is classed as cell-based. Particulars: HEK 293 4.0–7 cells stably expressing the human calcium receptor; fluo-3; read-out: IC50 for blocking increases of intracellular Ca2+ elicited by extracellular Ca2+. The method, boiled down: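 Intracellular Ca^2+ measured with fluo-3 at 37° C in stirred cell suspension. Buffer held 1 mM CaCl2 and 1 mg/mL D-glucose. Compound or vehicle added 90 seconds before extracellular Ca^2+ was raised from 1 to 2 mM, and calcilytic activity scored as concentration-dependent block of the intracellular Ca^2+ rise.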

Another assay deals with Parathyroid cells. Particulars: read-out: EC50 for mobilization of intracellular calcium; cited from earlier work. (Calcium assays in cells follow changes in intracellular calcium, usually with a dye or a luminescent sensor.)

pEC50, pIC50: −log10 of the molar value. Structures can show the parent of a compound that is named as a salt.

As to `COc1ccc(CC(C)(C)NCC(O)COc2ccccc2C(C)C)cc1` (stereo not shown) [Compound 153, N-[2-hydroxy-3-(2-iso-propylphenoxy)propyl]-1,1-dimethyl-2-(4-methoxyphenyl)ethylamine Hydrochloride], the pIC50 – broadly, the negative decadic logarithm of the IC50, by convention in mol/L – on human calcium receptor is over 6.00.

With `COc1ccc(CC(C)(C)NCC(O)COc2cccc(OC(F)(F)F)c2)cc1` (stereo not shown) [Compound 154, N-[2-hydroxy-3-(3-trifluoromethoxyphenoxy)propyl]-1,1-dimethyl-2-(4-methoxyphenyl)ethylamine Hydrochloride], the pIC50 at human calcium receptor is over 6.00.

With `COc1ccc(CC(C)(C)NCC(O)COc2c(Cl)cccc2Cl)cc1` (stereo not shown) [Compound 155, N-[2-hydroxy-3-(2,6-dichlorophenoxy)propyl]-1,1-dimethyl-2-(4-methoxyphenyl)ethylamine Hydrochloride], the pIC50 on human calcium receptor is over 5.00.

For `COc1ccc(CC(C)(C)NCC(O)COc2cc(C(F)(F)F)cc(C(F)(F)F)c2)cc1` (stereo not shown) [Compound 156, N-[2-hydroxy-3-(3,5-bistrifluoromethylphenoxy)propyl]-1,1-dimethyl-2-(4-methoxyphenyl)ethylamine Hydrochloride], on human calcium receptor, the pIC50 is over 6.00.

As to `COc1ccc(CC(C)(C)NCC(O)COc2cc(Cl)cc(OC)c2)cc1` (stereo not shown) [Compound 157, N-[2-hydroxy-3-(3-chloro-5-methoxyphenoxy)propyl]-1,1-dimethyl-2-(4-methoxyphenyl)ethylamine Hydrochloride], the pIC50 on human calcium receptor is over 6.00.

For the compound `COc1ccc(CC(C)(C)NCC(O)COc2ccccc2[N+](=O)[O-])cc1` (stereo not shown) [Compound 159, N-[2-hydroxy-3-(2-nitrophenoxy)propyl]-1,1-dimethyl-2-(4-methoxyphenyl)ethylamine Hydrochloride], on human calcium receptor, the pIC50 was over 6.00.

Turning to `COc1ccc(CC(C)(C)NCC(O)COc2cccc(C#N)c2)cc1` (stereo not shown) [Compound 160, N-[2-hydroxy-3-(3-cyanophenoxy)propyl]-1,1-dimethyl-2-(4-methoxyphenyl)ethylamine Hydrochloride], on human calcium receptor, the pIC50 is over 6.00.

In the case of `COc1ccc(CC(C)(C)NCC(O)COc2ccc(C#N)cc2)cc1` (stereo not shown) [Compound 161, N-(2-hydroxy-3-(4-cyanophenoxy)propyl]-1,1-dimethyl-2-(4-methoxyphenyl)ethylamine Hydrochloride], the pIC50 at human calcium receptor is over 5.00.

For `CCCN(CCC)S(=O)(=O)c1ccc(OC[C@H](O)CNC(C)(C)Cc2ccc(OC)cc2)c(Cl)c1Cl` [Compound 165, N-[2(R)-Hydroxy-3-[(2,3-dichloro-4-dipropylsulfamoyl)phenoxyl-1-propyl]-N-[1,1-dimethyl-2-(4-methoxyphenyl)ethyl]amine hydrochloride salt], at human calcium receptor, the pIC50 is over 6.00.

For `CC(C)(Cc1ccc(Cl)c(Cl)c1)NC[C@@H](O)COc1c(C#N)sc2ccccc12` [Compound 166], on human calcium receptor, the pIC50 is over 6.00.

Consider `COc1ccc(CC(C)(C)NC[C@@H](O)COc2ccc3c(c2)[nH]c2ccccc23)cc1` [Compound 167], for which the pIC50 on human calcium receptor is over 6.00.

`[H]/N=C(/N)N[C@H]1[C@H](O)[C@@H](O)[C@H](O[C@@H]2O[C@@H](C)[C@](O)(C=O)[C@H]2O[C@@H]2O[C@@H](CO)[C@H](O)[C@@H](O)[C@@H]2NC)[C@@H](N/C(N)=N\[H])[C@@H]1O` [streptomycin]: the pEC50 (as a rule, the EC50 on a negative log10 scale, so that one unit is a factor of ten) in the assay with Parathyroid cells was 3.22.

On to gentamicin, for which the pEC50 with Parathyroid cells was 3.82.
